Measurements as given in US20090233372A1, “COMPOSITIONS, KITS AND METHODS FOR DETERMINING ETIOLOGY OF TRALI AND DETECTING PATIENTS AT RISK FOR THIS TRANSFUSION REACTION” (Bonfils Blood Center, priority 2008, published 2009).

Experiments:
Type in all cases: cell-based
neutrophil oxidase = assay: Priming of the neutrophil oxidase / fMLP stimulated respiratory burst by biologically active compounds; conditions: added directly to the assay
From the text: The priming activity of plasma specimens from various sources including patient samples and blood components has been described herein. The effects on priming by various dilutions may correlate with the concentration of biologically active compounds in the specimens. Many of these compounds are well characterized and their priming activities determined. […] Each has its own concentration dependent effects. […] Similar effects are seen with complement fragments (e.g., C5a), other biologically active lipids (e.g., leukotrienes), and other compounds (e.g., sCD40L). Antibodies to neutrophil antigens (e.g., HNA-3a) also can prime the oxidase enzyme system. All these agents may be detected in plasma from blood components implicated in TRALI or plasma from patients sustaining a TRALI reaction. All may be added directly to the assay and priming activity detected as described in other sections.

[1] = test system: peripheral blood neutrophils; assay: Priming assay using fluorescent probe (DHR) for hydrogen peroxide, flow cytometry
Protocol: Hydrogen peroxide (H2O2) is another reactive oxygen species produced by neutrophils when the NADPH oxidase and associated respiratory burst are activated. H2O2 can be detected intracellularly by incubating cells with dihydrorhodamine (DHR). This non-fluorescent compound will be oxidized to rhodamine, a potent fluorophore, when H2O2 is generated by activated neutrophils. This assay can be used to detect enhancement of the fMLP stimulated respiratory burst. […] Isolated peripheral blood neutrophils are incubated with 50 μM DHR. After exposure to fMLP (1 μM) or PAF (1 μM) for 3 minutes and fMLP (1 μM), the cells are placed on ice and samples analyzed with the evaluation of 10,000 events on a BD Canto flow cytometer. […] When PAF is used to prime the fMLP response, the result is a marked increase in H2O2 production expressed as MCF (˜250 MCF units).
This assay has been further optimized for the following reagents: DHR, 50 μM with the best loading time of 1 minute. Optional concentration of fMLP is 1 μM and PAF 1 μM. The assay should be analyzed in a flow cytometer as soon as possible but may be delayed up to 4 hours after completion without jeopardizing the results. Finally, plasma itself quenches the fluorescence. As a result the priming assay on this platform requires exposure of the cells to buffer or test sample for priming (PAF, plasma, etc), a low speed centrifugation to pellet cells, resuspension of cells in DHR containing buffer, then stimulation with fMLP. Determination of MCF is by analysis of 20,000 events. FIG. 6 summarizes results, expressed as mean ±SEM, with this assay in four separate experiments. Resting cells with buffer present very low levels of H2O2 with an increase when resting cells are stimulated with fMLP. Plasma from Day 0 and 7 stored platelet concentrates has little effect in the absence of fMLP.

cytoplasts = assay: Cytoplast priming assay, superoxide anion measured as cytochrome c reduction; conditions: PAF 1 μM, fMLP 1 μM
Protocol: Cytoplasts are neutrophils which have been sedimented on a 20% Ficoll gradient at 77,000×g. Cytoplasts, are devoid of nucleus, granules and other subcellular organelles. Cytoplasts retain the ability for random and directed migration, phagocytosis of opsonized particles as well as activation of a respiratory burst and generation of reactive oxygen species. They can be frozen at −70° C. and thawed; the thawed cytoplasts can be used as targets for priming activity. The advantage is that cytoplasts would be readily available for assaying priming activity of biologic specimens (FIG. 1B, 113) in place of freshly isolated neutrophils from a healthy donor.

neutrophils = assay: Detection of priming by chemiluminescence (Diogenes probe); conditions: priming sample, then fMLP; FIG. 7 and FIG. 8
Protocol: A third assay makes use of energy from chemiluminescence to determine oxygen radical generation from activated neutrophils. In this reaction, neutrophils are incubated with the priming sample or buffer, then exposed to fMLP after addition of the chemiluminescent probe, Diogenes, and the energy released determined in a chemiluminescence reader. The optimal cell concentration is between 2.5×10^6 cells/ml and 5×10^6 cells/ml. The chemiluminescence is >90% SOD inhibitable and so detects superoxide anion. The optimal addition of diogene is 20 μl to provide specific determination of oxygen radicals released by the neutrophils respiratory burst. […] Buffer alone is included for control. […] As with fluorescence platform, plasma nonspecifically quenches the chemiluminescence. This can be circumvented with an extra wash step to remove plasma after incubating cells with the priming stimulus. The resultant assay is sensitive to the effect in stored blood products. […] The priming effect for PAF is presented for comparison. The results are expressed as mean ±SEM. This platform, using chemiluminescence, can be used to determine priming by biologic samples.

**Q.** Which “priming of the fMLP stimulated respiratory burst” value (neutrophil oxidase) does the source give for “IL-8: cytokine/chemokine found in biologically active plasma samples” here?
**A.** concentration dependent priming

**Q.** How did the “priming of the fMLP stimulated respiratory burst” value (neutrophil oxidase) turn out when TNF-alpha was run?
**A.** concentration dependent priming

**Q.** Which “mean channel fluorescence (H2O2 production)” value ([1]; fMLP 1 μM by itself, 50 μM DHR, FIG. 5) does the source give for fMLP here?
**A.** 45

**Q.** Which “enhancement of the fMLP stimulated respiratory burst by priming” value (cytoplasts) does the source give for platelet activating factor [PAF] here?
**A.** 1.6 to 2.0 fold

**Q.** What about the “H2O2 production expressed as MCF” value ([1]; PAF 1 μM for 3 minutes, then fMLP 1 μM, 50 μM DHR, FIG. 5) of the same substance?
**A.** ~250 MCF units

**Q.** And the “priming of the fMLP stimulated respiratory burst (H2O2, MCF)” value ([1]; priming sample, then fMLP, four separate experiments, FIG. 6)?
**A.** markedly enhanced

**Q.** And the “priming of the fMLP stimulated chemiluminescence (RLUs)” value (neutrophils)?
**A.** higher level of relative light units (RLUs) as well as a more prolonged time course at maximal production
